In patent publication US3963758A, “2-(Benzofuroyl)phenyl acetic acids” (Serdex - Societe d'Etudes, de Recherches, de Diffusion et …, priority 1973, dated 1976):

Experiments:
[1] = test system: phenylbenzoquinone-induced writhing movements; assay: Analgesic activity, Siegmund Test (phenylbenzoquinone writhing); assay type: in vivo; conditions: mice; for ED50: Mus musculus, ip; for ED50 / Siegmund ED50: test material 1 hour before phenylbenzoquinone i.p.
Experimental: Siegmund Test (Proc. Soc. Exp. Biol. Med., 1957, 95, 729-31)
Intraperitoneal injection of 0.25 ml of an aqueous-alcoholic 2-phenyl-1,4-benzoquinone solution at a concentration of 0.02% induces in mice a specific syndrome characterized by the stretching of the hind paws and writhing movements of the trunk.
The tests are carried out with homogeneous lots of 20-30 mice having an average weight of 20 g.
The animals are administered the test material at time zero. One hour later, phenylbenzoquinone is administered by the intraperitoneal route. The animals are individually kept under observation during 5 minutes, between the fifth and the tenth minute after phenylbenzoquinone injection.
The present activity of the test material is evaluated by comparing the number of writhing movements of the treated animals with respect to the reference animals.

[2] = test system: carrageenin-induced edema; assay: Acute carrageenin-induced edema; assay type: in vivo; conditions: oral, male rats; for ED50: Rattus norvegicus; for ED50 / Carrageenin-induced edema ED50: 1 hour prior to carrageenin, edema at 3 hours; for Carrageenin-induced edema ED50: 180 min; for Carrageenin-induced edema percent protection: 3 hours
Experimental: c. Anti-inflammatory activity
1- Acute carrageenin-induced edema (Winster C. A., Risley E. A., Nuss G.W., Proc. Soc. Biol. Med., 1962, 3, 544-7)
Subplantar injection in the paw of rats of 0.05 ml of an aqueous gel containing 1% carrageenin induces a local edema which may be measured by means of an electric mercury plethysmometer.
Determination of the volume of the forepaw prior, and three hours after the carrageenin injection, makes it possible to calculate the percent inflammation.
The treatment is administered orally, one hour prior to carrageenin administration.
The tests are conducted only with homogeneous lots of 10 male rats weighing 180 g ± 10 g.
The resulting edema is evaluated for each animal by means of the ratio: [formula] in which:
Vo of the paw at time 3 hrs Vo = volume of the paw at time zero
The protection noted under the effect of the test material may be evaluated by comparing the percent edema determined in the treated lot with respect to the reference lot.

[3] = test system: Turfyl nicotinate (Trafuril)-induced erythema; assay: Turfyl nicotinate (Trafuril)-induced erythema; assay type: in vivo; conditions: oral, male albino guinea-pigs; for Trafuril ED50 / ED50: 1 hour prior to test; for ED50: Cavia porcellus
Experimental: 2 - Turfyl nicotinate (Trafuril) -induced erythema
A slight modification of the HAINING method (Br. Jl. Pharmacol., 1963, 21, 104-12) is used:
The test is carried out with homogeneous lots of 6-12 male albino guinea-pigs weighing 300-400 g, after careful depilation of the skin of their backs on the previous day.
On the day of the test, a disk for antibiotic sensitivity determination impregnated with a 5% alcoholic Turfyl nicotinate solution is applied during one minute on the lumbar area.
The effect produced is recorded after five minutes.
The results are rated according to an "all or nothing" scale, according to whether or not an erythema appears at the locus of application of the disk.
The treatment is administered orally one hour prior to the test, under an uniform volume of 1 ml/kg body weight; the test materials are homogeneously suspended with 3% gum arabic.
The reference animals are administered an equal volume of carrier.
The percent erythema obtained in the treated animals is compared with that obtained in the simultaneously tested reference lot.

[4] = Acute toxicity, oral, rats; conditions: rat, in vivo, fasting rats, 14 days observation
Experimental: (§1) Acute toxicity is determined by oral administration of the test material in fasting mice and rats.
(§2) The compound of Example 1 is homogeneously suspended in a carrier comprising a 3% gum arabic solution.
(§3) The animals are kept under observation during 14 days after the treatment.

[5] = test system: adjuvant arthritis (Mycobacterium butyricum); assay: Adjuvant arthritis; assay type: in vivo; conditions: at 20 mg/kg; oral, daily, 14th to 28th day; male rats
Experimental: According to the works by PEARSON C. M. (J. Chronic. Dis., 1963, 16, 863-74), JONES R. D. and WARD J. R. (Recent progress in hormone research, vol. XIX, 1963, Ac. Press), WARD T. R., JONES R. S. (Arthritis and Rheumatism, 1962, 5, 557-64).
The tests are carried out in male rats weighing 151 g ± 20 g. On day 0, the animals are given intradermally, at the base of the tail, an 0.05 ml injection of a suspension of Mycobacterium butyricum in paraffin oil (12 mg killed microbial bodies/ml). The animals are selected on the 14th day and are distributed into homogeneous lots of 15 animals.
The treatment is administered orally, daily, from the 14th to the 28th day.
The chronic arthritis is evaluated according to two criteria:
Arthritis index, by separate scoring of the injuries (erythema, edema, distortions) of each of the four limbs (according to a scoring scale from 0 to 3; maximum score: 12) in each animal on the 14th day, the 18th day, the 21st day, the 24th day and the 28th day (the scoring is effected blind, by two different experimenters).
Sedimentation rate according to KOWARSKI (pipette held at an angle of 45°; recording time: 30 minutes).
The blood sample is taken by the retro-orbicular route. The determination is effected on the 14th, the 21st and the 28th day. […]

[6] = Acute toxicity, oral, mice; conditions: mouse, in vivo, fasting mice, 14 days observation
Experimental: as §1, §2, §3

[7] = test system: Bradykinine-induced bronchoconstriction; assay: Anti-bradykinine activity (Konzett and Rossler technique); assay type: in vivo, guinea-pig; conditions: I.V., dosage of 100 γ/kg; bradykinine 20 γ/kg I.V.
From the text: c. Anti-bradykinine activity
The antagonistic action of the compound described in Example 1 was studied with respect to a Bradykinine-induced bronchoconstriction in guinea-pig (20 γ/kg I.V.).
The technique used was the conventional technique described by KONZETT and ROSSLER (Arch. Exp. Path. Pharmakol., 195, 71-74) and later by HARICHAUX (C.R. Soc. Biol., 158, 12, 2437-2441).

Which results are given for `COc1ccc2oc(C(=O)c3cccc(C(C)C(=O)O)c3)cc2c1` (stereo not shown) [Example 7]?
ED50 [1]: < 60 mg/kg; ED50 [2]: < 20 mg/kg

What does the source list for `CC(C(=O)O)c1cccc(C(=O)c2cc3ccccc3o2)c1` (stereo not drawn) [Example 9, d-2-[3-(2-Benzofuroyl)-phenyl]propionic acid]?
Trafuril ED50 [3]: 2.3 mg/kg; Siegmund ED50 [1]: < 6 mg/kg; Carrageenin-induced edema ED50 [2]: 8 mg/kg

With `COc1ccc(C(C)C(=O)O)cc1C(=O)c1cc2ccccc2o1` (stereo not shown) [Example 6, 2-[3-(2-benzofuroyl)-4-methoxy-phenyl]propionic acid] as the molecule, how does the ED50 [1] read?
The ED50 was about 15 mg/kg.

And the ED50 [2]?
Its ED50 is over 20 mg/kg.

Which results are given for `Cc1c(C(=O)c2ccc(CC(=O)O)cc2)oc2ccccc12` [Example 5, 4-[2-(3-Methyl-benzofuroyl)]-phenyl acetic acid]?
Siegmund percent protection ([1]; 50 mg): 14%; Carrageenin-induced edema percent protection ([2]; 100 mg): 15%

Which Trafuril percent protection ([3]; 100 mg) does the source give for `O=C(O)Cc1cccc(C(=O)c2cc3ccccc3o2)c1` [Example 3, [3-(2-Benzofuroyl)-phenyl]acetic acid] here?
Its Trafuril percent protection is 17%.

And the Siegmund percent protection ([1]; 10 mg)?
Its Siegmund percent protection is 32%.

And the Siegmund percent protection ([1]; 50 mg)?
Its Siegmund percent protection is 50%.

What about the “Carrageenin-induced edema percent protection” value ([2]; 100 mg) of the same molecule?
The value was 10%.

What does the source list for `CC(C(=O)O)c1cccc(C(=O)c2cc3ccccc3o2)c1` (stereo not drawn) [Example 10, l-2-[3-(2-Benzofuroyl)-phenyl]propionic acid]?
Trafuril ED50 [3]: 8 mg/kg; Siegmund ED50 [1]: < 6 mg/kg; Carrageenin-induced edema ED50 [2]: ~11.5 mg/kg

With `CC(C(=O)O)c1ccc(C(=O)c2cc3ccccc3o2)cc1` (stereo not shown) [Example 4, 2-[4-(2-Benzofuroyl)-phenyl]propionic acid] as the molecule, how does the ED50 [3] read?
Its ED50 is 115 mg/kg.

And the ED50 [1]?
Its ED50 is 5 mg/kg.

What about the ED50 [2] of the same molecule?
Its ED50 is 170 mg/kg.

Which results are given for `CC(C(=O)O)c1cccc(C(=O)c2cc3ccccc3o2)c1` (racemic) [Example 1, 2-[3-(2-benzofuroyl)-phenyl]-propionic acid]?
ED50 [3]: 3.6 mg/kg; LD50 at 336 h [4]: 1300 mg/kg; Activity in adjuvant arthritis [5]: active; ED50 [1]: 0.72 mg/kg; ED50 [2]: 9 mg/kg; LD50 at 336 h [6]: 2500 mg/kg; Inhibition of bradykinine-induced bronchospasm [7]: inhibited

Which Siegmund percent protection ([1]; 50 mg) does the source give for `O=C(O)Cc1ccc(C(=O)c2cc3ccccc3o2)cc1` [Example 2, [4-(2-benzofuroyl)-phenyl]acetic acid] here?
Its Siegmund percent protection is 28%.

And the “Carrageenin-induced edema percent protection” value ([2]; 50 mg)?
The value was 15%.
